# Laboratory results taken from patent US20110105510A1, “PROPHYLACTIC/AMELIORATING OR THERAPEUTIC AGENT FOR NON-ALCOHOLIC STEATOHEPATITIS” (priority 2008, published 2011).
# Assays:
# [1] = tested on: high fat and high sucrose diet taking SD rats; assay: Efficacy on high fat and high sucrose diet taking rats; type: in vivo, rat; conditions: HF diet SD rats, four weeks, oral once a day; EPA-E 1000 mg/kg or compound 2 1 mg/kg; compared with the control group
# Experimental: Four-week-old male SD rats are fed at 23° C. on a 12:12 light/dark cycle, whereupon they are permitted to take either an ordinary diet (F-1; Funabashi Farm Co., Ltd.) or a high fat and high sucrose diet (TD88137 from Harlan […]; hereafter referred to as “HF diet”) freely for four weeks. The rats are divided into five groups (each comprising 10 animals), namely, normal group (ordinary diet-loaded), control group (HF diet-loaded), EPA-E group (HF diet-loaded, plus EPA-E-administered), compound 2 group (HF diet-loaded, plus compound 2-administered), and combined application group (HF diet-loaded, plus EPA-E-administered, plus compound 2-administered). During the feeding, 1000 mg/kg of EPA-E is administered to the EPA-E group, 1 mg/kg of compound 2 to the compound 2 group, as well as 1000 mg/kg of EPA-E and 1 mg/kg of compound 2 are administered to the combined application group, with each administration being orally carried out once a day by suspending the relevant drug or drugs in a 5% aqueous solution of gum arabic. To the normal group and the control group, a 5% aqueous solution of gum arabic is orally administered once a day. After the feeding for four weeks, blood samples are collected to measure the neutrophil count and conduct biochemical assays of the plasma.
# NASH = conditions: EPA-E of high purity, 2700 mg/day for 12 months; cited from earlier work
# [2] = tested on: diabetic mice (db/db) loaded with a methionine-choline-deficient diet; assay: Efficacy on methionine-choline-deficient diet diabetic mice; type: in vivo, mouse; conditions: MCD diet db/db mice, two weeks, oral once a day; EPA-E 1000 mg/kg or compound 1 1 mg/kg; compared with the control group
# Experimental: Pharmacological actions of EPA-E and/or compound 1 on hepatic disorders and fibrosis are confirmed by using diabetic mice loaded with a methionine-choline-deficient diet (hereafter referred to as “MCD diet”), which are known for their development of NASH-like hepatic lesions. Seven-week-old male db/db mice (Charles River Japan, Inc.) are fed at 23° C. on a 12:12 light/dark cycle, whereupon they are permitted to take either an ordinary diet (F-1; Funabashi Farm Co., Ltd.) or a MCD diet (Dyets, Inc.) freely for two weeks. The mice are divided into five groups (each comprising 20 animals), namely, normal group (ordinary diet-loaded), control group (MCD diet-loaded), EPA-E group (MCD diet-loaded, plus EPA-E-administered), compound 1 group (MCD diet-loaded, plus compound 1-administered), and combined application group (MCD diet-loaded, plus EPA-E-administered, plus compound 1-administered). During the feeding, 1000 mg/kg of EPA-E is administered to the EPA-E group, 1 mg/kg of compound 1 to the compound 1 group, as well as 1000 mg/kg of EPA-E and 1 mg/kg of compound 1 are administered to the combined application group, with each administration being orally carried out once a day by suspending the relevant drug or drugs in a 5% aqueous solution of gum arabic. To the normal group and the control group, a 5% aqueous solution of gum arabic is orally administered once a day. […]
SMILES,"increases of the neutrophil count, TNFα, IL-6, high sensitivity CRP, ferritin, thioredoxin and type IV collagen [1]",increases of the plasma AST and ALT levels [1],"NASH (AST or ALT, inflammatory cytokines or oxidative stress markers, hepatobiopsy) (NASH)",increases of the plasma AST and ALT levels [2],"increases of the type IV collagen, hyaluronic acid and TIMP-1 levels [2]"
"CCn1ncc2c(-c3cncc(Br)c3)c(C#N)c(C)nc21 [compound 2, 4-(5-bromo-3-pyridyl)-1-ethyl-6-methyl-1H-pyrazolo[3,4-b]pyridine-5-carbonitrile]",suppressed,suppressed,,,
"CC/C=C\C/C=C\C/C=C\C/C=C\C/C=C\CCCC(=O)OCC [EPA-E, EPA ethyl]",suppressed,suppressed,amelioration of NASH,suppressed,suppressed
